Assay results taken from patent publication US7357916B2, “Method for creating a uniform vascular wound in zebrafish or zebrafish larva” (priority 2002, dated 2008).
Like-named read-outs stand apart in the source and are kept apart here.

Experiments:
zebrafish larvae [1] = test system: zebrafish larvae
Experimental: (§1) For screening studies, larvae at three to five days postfertilization (dpf) were placed in 500 μL of water and an equal volume of phenylhydrazine (40 mmol/L phenylhydrazine HCl (PHZ), Sigma, MO) or FeCl3 (40 mmol/L) solution was added. Each larva, along with 9 μL of solution, was placed in a 3 mm×1 mm×3 mm well of an acrylic viewing chamber (narrow wells limited the motion of larvae for better viewing). For recording purposes, larvae were also immobilized in agarose, as described below, and 100 μl of either FeCl3 or PHZ were layered on top of the agarose block. Vascular occlusion was recorded using an inverted Olympus microscope equipped with a Javelin MOS solid-state camera (Japan) connected to a VHS recorder.

zebrafish larvae [2] = experiment: Vascular occlusion by laser irradiation, time to occlusion (TTO); format: in vivo; conditions: normal TTO 17±5.0 seconds; for Time to occlusion (TTO), laser irradiation assays: embryos microinjected with morpholino, screened at 3 dpf
Experimental: For laser irradiation treatment, 1 to 5 larvae (3 mm) were placed in 250 μL of water and anesthetized with 10 μl of Tricaine solution (300 μmol/L, Sigma, MO). 250 μL of 1% low-melting agarose solution (at 40° C.) were added to the anesthetized larvae and each larva, along with approximately 100 μL of agarose solution, was positioned inside a viewing well that was formed by placing a plastic ring on a glass microscope slide. Before treatment, water was allowed to soak into the agarose blocks to wash out the anesthetic. Pulsed nitrogen laser light pumped through coumarin 440 dye (445 nm) (MicroPoint Laser system, Photonic Instruments Inc, IL) at seven pulses/second was delivered to larvae for five seconds through a 10× objective on a Nikon Optiphot microscope. The progress of occlusion was recorded using a Nikon CoolPix 995 CCD camera.
Larvae at 2 and 3 dpf were treated with warfarin as described (Hanumanthaiah et al., 2001, specifically incorporated herein by reference) for 24 hours. Larvae were rinsed in water and tested with either chemical or laser methods of vessel injury. Morpholinos (Discovery Genomics Inc.) were designed against 5′-UTR around the translational start site of zebrafish factor VII (Sheehan et al., 2001, specifically incorporated herein by reference or factor VIIi (Hanumanthaiah et al., 2002, specifically incorporated herein by reference). Sequences were as follows:
For each morpholino a working solution (2 mg/mL) was prepared as previously described (Nasevicius & Ekker, 2000, specifically incorporated herein by reference). Embryos were generated by in vitro fertilization as described (Westerfield, 2000, specifically incorporated herein by reference) and 9 nL of either morpholino solution were injected into the yolk of embryos at the single to four cell stages. Control embryos were microinjected with an equal volume of PBS. Embryos were maintained at 28° C. and screened at 3 dpf.

zebrafish larvae [3] = experiment: Vascular occlusion with phenylhydrazine, time to occlusion (TTO); format: in vivo
Experimental: as §1

erythrocytes = experiment: Annexin V binding, flow cytometry of blood cells from treated adult zebrafish; format: in vivo; conditions: 5 mmol/L for five minutes, FITC annexin V
Experimental: Adult zebrafish were placed in a 500 mL solution of phenylhydrazine (5 mmol/L phenylhydrazine HCl, pH 7.2 in 20 mmol/L Tris) or FeCl3 (5 mmol/L) for five minutes and then rinsed with de-ionized water. Two μL of blood were collected, as described (Jagadeeswaran et al., 2000a, specifically incorporated herein by reference), from control or treated zebrafish and blood cells were isolated by centrifugation of the blood sample at 800 g for two minutes, followed by removal of the supernatant. The cell pellet was washed once with 200 μL of PBS, centrifuged and resuspended in 200 μL of binding buffer (ApoAlert; Clontech, Calif.) followed by addition of 5 μL of FITC conjugated Annexin-V (Clontech, Calif.). Samples were incubated for ten minutes in dark at 25° C. and visualized ulsing a 20× UplanApo objective on an Olympus FV500 confocal microscope or processed by flow cytometry (Gregory & Jagadeeswaran, 2002).

[4] = larvae treated with warfarin for 24 hours

Molecule: CC(=O)CC(c1ccccc1)c1c(O)c2ccccc2oc1=O (centres unmarked) [Warfarin, warfarin]
- Time to occlusion (TTO), FeCl3 injury (zebrafish larvae [1]; larvae treated with warfarin for 24 hours, normal TTO 6±2 minutes): > 10 min
- Time to occlusion (TTO), laser irradiation injury (zebrafish larvae [2]; [4]): > 1 min
- Effect on TTO in phenylhydrazine induced vascular occlusion (zebrafish larvae [3]; [4]): did not affect TTO

Molecule: 5′-CAAGCAGCAGACTC ATATTTACTGC-3′ (SEQ ID NO:1) (antisense CAAGCAGCAGACTCATATTTACTGC; all phosphorodiamidate morpholino (PMO)) [FVIIas]
- Time to occlusion (TTO), laser irradiation assays (zebrafish larvae [2]): 55 ± 9 s

Molecule: 5′-GTCACTGACCTCAGCCTGTTCACAA-3′ (SEQ ID NO:2) (morpholino, further chemistry not given here) [FVIIias]
- Time to occlusion (TTO), laser irradiation assays (zebrafish larvae [2]): 9 ± 3 s

Molecule: Cl.NNc1ccccc1 [phenylhydrazine, phenylhydrazine HCl]
- Erythrocytes exhibiting externalization of PS (erythrocytes): approximately 18%
- Time to occlusion (TTO) induced by the agent, mean±standard deviation (zebrafish larvae [3]; wild type larvae at four dpf, n=500): 10 ± 2.5 min

Molecule: [Cl][Fe]([Cl])[Cl] [FeCl3, ferric chloride]
- Time to occlusion (TTO) induced by the agent, mean±standard deviation (zebrafish larvae [1]; wild type larvae at three dpf, n=1000): 6 ± 2 min
